Test results from the NIST ThermoML archive (doi:10.1016/j.fluid.2006.05.032).

Settings: Liquid, Vibrating tube method

Cc1ccccc1 [toluene]
mass density [kg/m3]
Settings | 293.15 K | 303.15 K | 313.15 K | 323.15 K | 333.15 K | 343.15 K | 353.15 K
100 kPa | 867.1 | 857.5 | 847.8 | 838.4 | 828.8 | 819.4 | 809.7
5000 kPa | 870.6 | 861.4 | 852 | 842.7 | 833.5 | 824.5 | 815.1
10000 kPa | 874.2 | 865.1 | 856.1 | 847 | 838.2 | 829.3 | 820.3
15000 kPa | 877.6 | 869 | 859.9 | 851.1 | 842.6 | 833.9 | 825.3
20000 kPa | 881.1 | 872.4 | 863.5 | 855 | 846.6 | 838.1 | 829.9
25000 kPa | 884.2 | 875.8 | 867.1 | 858.9 | 850.5 | 842.3 | 834
30000 kPa | 887.3 | 879 | 870.5 | 862.5 | 854.3 | 846.2 | 838.2
35000 kPa | 890.3 | 882.1 | 873.8 | 866 | 857.9 | 850.1 | 842.2
40000 kPa | 893.3 | 885.2 | 877 | 869.4 | 861.4 | 853.7 | 846.1
45000 kPa | 896.1 | 888.2 | 880.2 | 872.5 | 864.8 | 857.4 | 849.8
50000 kPa | 898.9 | 891.1 | 883.3 | 875.7 | 868.1 | 860.8 | 853.3
55000 kPa | 901.6 | 894 | 886.2 | 878.7 | 871.4 | 864.2 | 856.7
60000 kPa | 904.2 | 896.7 | 889 | 881.7 | 874.5 | 867.4 | 860.1
65000 kPa | 906.7 | 899.2 | 891.8 | 884.6 | 877.5 | 870.3 | 863.5

CCCO [propan-1-ol]
mass density [kg/m3]
Settings | 293.15 K | 303.15 K | 313.15 K | 323.15 K | 333.15 K | 343.15 K | 353.15 K
100 kPa | 803.5 | 795.2 | 787.6 | 779.3 | 770.5 | 761 | 752.2
5000 kPa | 807.3 | 799.2 | 791.9 | 783.7 | 775.4 | 766 | 757.6
10000 kPa | 810.9 | 802.9 | 795.9 | 788 | 780 | 770.7 | 762.7
15000 kPa | 814.3 | 806.7 | 799.7 | 792 | 784.3 | 775.3 | 767.6
20000 kPa | 817.7 | 810.1 | 803.3 | 795.8 | 788.4 | 779.6 | 772.1
25000 kPa | 821 | 813.6 | 806.8 | 799.7 | 792 | 783.7 | 776.3
30000 kPa | 824 | 816.7 | 810.2 | 803.2 | 795.7 | 787.6 | 780.4
35000 kPa | 827 | 819.8 | 813.5 | 806.6 | 799.2 | 791.2 | 784.1
40000 kPa | 829.9 | 822.9 | 816.6 | 809.9 | 802.6 | 794.7 | 787.7
45000 kPa | 832.7 | 825.8 | 819.7 | 813 | 805.9 | 798.3 | 791.8
50000 kPa | 835.4 | 828.8 | 822.7 | 816.1 | 809.1 | 801.6 | 795.1
55000 kPa | 838.1 | 831.6 | 825.5 | 819 | 812.3 | 804.6 | 798.5
60000 kPa | 840.7 | 834.2 | 828.3 | 821.8 | 815.2 | 807.7 | 801.7
65000 kPa | 843.2 | 837 | 831 | 824.6 | 818.1 | 810.6 | 805
